From patent US7416864B2, “Method for treating dyskinesia” (Schwarz Pharma AG, priority 2004, dated 2008)
Entries after “also recorded” stand apart in the source; their conditions may differ.

System: Reserpine-Induced Tardive Dyskinesia in Mice
Assay: Reserpine-induced tardive dyskinesia in mice, vacuous chewing movements (VCM) count
Assay type: in vivo
Conditions: for VCM frequency per 10 min. Mean ± S.E.M.: 1 hour post-administration, male CD1 mice
Experimental: Male CD1 mice (Charles River Laboratories, France), about 3 month-old were used. During the acclimatization period, animals were housed 5 per cage, in Makrolon type IlIl cages, in the animal room (temperature: 20±2° C., humidity: minimum 45%, air changes: >12 per hour, light/dark cycle of 12 h/12 h [on at 7:00 A.M:]. Animals were allowed a minimum of 5 days period before experiment for acclimatization.
Reserpine (Sigma) was dissolved in glacial acetic acid, diluted in water and administered s.c. at 1 mg/kg. 2 injections were given separated by 48 h. SPM 927 was studied at 3 doses (3, 10 and 30 mg/kg; i.p.) given as a single injection. Clonazepam was administered at 1 mg/kg, i.p. (3).
Reserpine was given twice (Day 1 and Day 3) and SPM 927 was administered 24 h after the last injection of reserpine (Day 4). Behavioral assessment was carried out 1 hour after drug injection (for 10 min). For the behavioral assessment, animals were placed in a plexiglass cage and after 5 min period of habituation, vacuous chewing movements (VCM) were counted for 10 min. VCM occurring during a grooming period were not taken into account.
Results are expressed as means±S.E.M.s of ten individual values. Statistical analyses was done with ANOVA (one way) and Dunnett's t-test. Significance was considered as p<0.05.

COC[C@@H](NC(C)=O)C(=O)NCc1ccccc1 [SPM 927, (R)-2-acetamide-N-benzyl-3-methoxypropionamide]
effect on reserpine-induced dyskinesia (in words) (3 mg/kg i.p., lowest dose): little or no effect | effect on number of vacuous chewing movements (in words) (10 mg/kg i.p.): reduced the number of vacuous chewing movements | effect on number of vacuous chewing movements (in words) (30 mg/kg i.p., highest dose, statistically significant (p<0.05 versus vehicle group)): reduced the number of vacuous chewing movements | VCM frequency per 10 min. Mean ± S.E.M. (Reserpine 1 mg/kg s.c. + SPM 927 3 mg/kg i.p., reserpine + vehicle group 41.4 ± 6.4): 48.6 ± 10.6 per 10 min | VCM frequency per 10 min. Mean ± S.E.M. (Reserpine 1 mg/kg s.c. + SPM 927 10 mg/kg i.p., reserpine + vehicle group 41.4 ± 6.4): 26.6 ± 5.7 per 10 min | VCM frequency per 10 min. Mean ± S.E.M. (Reserpine 1 mg/kg s.c. + SPM 927 30 mg/kg i.p., p < 0.05 versus reserpine + vehicle group (41.4 ± 6.4)): 23.9 ± 7.9 per 10 min | overall effect on reserpine-induced tardive dyskinesia / vacuous chewing movements (in words) (mice, no dose stated): attenuates reserpine induced vacuous chewing movements; also recorded: significant efficacy in reducing tardive dyskinesia
